Reference: patent publication US9216991B2 (Ares Trading S.A., priority 2012, dated 2015)
Structures can show the parent of a compound that is named as a salt.

Target: T1, IRAK4 (Homo sapiens, UniProt Q9NWZ3)
T1 construct: His (N); TEV cleavage site (N)
T1 sequence (Q9NWZ3 1-460): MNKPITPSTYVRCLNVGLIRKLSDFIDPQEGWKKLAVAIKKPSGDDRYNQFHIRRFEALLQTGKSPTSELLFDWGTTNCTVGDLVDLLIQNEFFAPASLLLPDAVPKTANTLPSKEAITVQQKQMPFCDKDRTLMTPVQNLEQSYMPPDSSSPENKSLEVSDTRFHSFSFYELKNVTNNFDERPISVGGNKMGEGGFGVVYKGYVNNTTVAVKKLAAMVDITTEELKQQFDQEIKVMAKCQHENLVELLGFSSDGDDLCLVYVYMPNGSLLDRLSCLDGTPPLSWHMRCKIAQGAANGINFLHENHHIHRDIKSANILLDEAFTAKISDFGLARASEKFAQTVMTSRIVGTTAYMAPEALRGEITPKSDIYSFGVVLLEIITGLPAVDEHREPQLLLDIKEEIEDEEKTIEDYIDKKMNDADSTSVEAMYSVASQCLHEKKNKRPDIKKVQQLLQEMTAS
Test: IRAK4 Enzymatic Assay
Format: biochemical
Details: His-TEV-IRAK4 20 ng/well, ATP 2 μM, STK1-biotin peptide 300 nM, 3 hours at 30° C., FlashPlate radioactivity
How it was run: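 Radiometric FlashPlate readout: biotin-STK1 substrate (300 nM) captured on streptavidin after EDTA stop and washes. Reaction used His-TEV-IRAK4 (20 ng/well), 2 μM [^33P]-spiked ATP and compound (1 nM-20 μM), incubated 3 h at 30 °C in 50 mM HEPES pH 7.0, 10 mM MgCl2, 5 mM MnCl2, 2 mM DTT.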

SMILES	IC50 [nM]
Cc1cc(-c2cccc(-c3ncc(-c4cnn([C@H]5CC[C@H](C(=O)N(C)C)CC5)c4)cn3)c2)cnn1 [Example 187, trans-4-(4-{2-[3-(6-Methyl-pyridazin-4-yl)-phenyl]-pyrimidin-5-yl}-pyrazol-1-yl)-cyclohexanecarboxylic acid dimethylamide]	< 100
CN(C)C(=O)Cn1cc(-c2cnc(-c3cccc(-c4cnn(C)c4)c3)nc2)cn1 [Example 38, N,N-Dimethyl-2-(4-{2-[3-(1-methyl-1H-pyrazol-4-yl)-phenyl]-pyrimidin-5-yl}-pyrazol-1-yl)-acetamide]	100 to 1000
CN(C)C(=O)C1CC2COCC(C1)C2n1cc(-c2cnc(-c3cccc(-c4cnn(C)c4)c3)nc2)cn1 (mixture of isomers) [Example 273, trans,cis-9-(4-{2-[3-(1-Methyl-1H-pyrazol-4-yl)-phenyl]-pyrimidin-5-yl}-pyrazol-1-yl)-3-oxa-bicyclo[3.3.1]nonane-7-carboxylic acid dimethylamide]	100 to 1000
Cn1cc(-c2cccc(-c3ncc(-c4cnn(CCN5CCCCC5)c4)cn3)c2)cn1 [Example 57, 2-[3-(1-Methyl-1H-pyrazol-4-yl)-phenyl]-5-[1-(2-piperidin-1-yl-ethyl)-1H-pyrazol-4-yl]-pyrimidine]	100 to 1000
CC1CN(C(=O)Cn2cc(-c3cnc(-c4cccc(-c5cnn(C)c5)c4)nc3)cn2)CCO1 (centres unmarked) [Example 80, 1-(2-Methyl-morpholin-4-yl)-2-(4-{2-[3-(1-methyl-1H-pyrazol-4-yl)-phenyl]-pyrimidin-5-yl}-pyrazol-1-yl)-ethanone]	100 to 1000
Cn1cc(-c2cccc(-c3ncc(-c4cnn(CC(=O)N5CCOCC5)c4)cn3)c2)cn1 [Example 36, 2-(4-{2-[3-(1-Methyl-1H-pyrazol-4-yl)-phenyl]-pyrimidin-5-yl}-pyrazol-1-yl)-1-morpholin-4-yl-ethanone]	100 to 1000
Cc1ncccc1CCn1cc(-c2cnc(-c3cccc(-c4cnn(C)c4)c3)nc2)cn1 [Example 89, 2-[3-(1-Methyl-1H-pyrazol-4-yl)-phenyl]-5-{1-[2-(2-methyl-pyridin-3-yl)-ethyl]-1H-pyrazol-4-yl}-pyrimidine]	100 to 1000
Cn1cc(-c2cccc(-c3ncc(-c4cnn(CCN5CCCC5)c4)cn3)c2)cn1 [Example 58, 2-[3-(1-Methyl-1H-pyrazol-4-yl)-phenyl]-5-[1-(2-pyrrolidin-1-yl-ethyl)-1H-pyrazol-4-yl]-pyrimidine]	100 to 1000
Cn1cc(-c2cc(F)cc(-c3ncc(-c4cnn(C5CCNCC5)c4)cn3)c2)cn1 [Example 24, 2-[3-Fluoro-5-(1-methyl-1H-pyrazol-4-yl)-phenyl]-5-(1-piperidin-4-yl-1H-pyrazol-4-yl)-pyrimidine hydrochloride]	100 to 1000
Cc1ccc(-c2cccc(-c3ncc(-c4cnn([C@H]5CC[C@H](C(=O)N(C)C)CC5)c4)cn3)c2)nn1 [Example 237, Trans-4-(4-{2-[3-(6-Methyl-pyridazin-3-yl)-phenyl]-pyrimidin-5-yl}-pyrazol-1-yl)-cyclohexanecarboxylic acid dimethylamide]	1000 to 5000
Cn1cc(-c2cccc(-c3ncc(-c4cnn(Cc5cccnc5)c4)cn3)c2)cn1 [Example 22, 2-[3-(1-Methyl-1H-pyrazol-4-yl)-phenyl]-5-(1-pyridin-3-ylmethyl-1H-pyrazol-4-yl)-pyrimidine]	100 to 1000

More lines, now with the values ahead:

IC50 [nM]	SMILES
< 100	CN1[C@@H]2CC[C@H]1C[C@H](n1cc(-c3cnc(-c4cccc(-c5cnn(C)c5)c4)nc3)cn1)C2 [Example 61, (3-exo)-8-Methyl-3-(4-{2-[3-(1-methyl-1H-pyrazol-4-yl)-phenyl]-pyrimidin-5-yl}-pyrazol-1-yl)-8-aza-bicyclo[3.2.1]octane]
< 100	Cn1cc(-c2cccc(-c3ncc(-c4cnn([C@@H]5CCCN(S(C)(=O)=O)C5)c4)cn3)c2)cn1 [Example 268, 5-[(R)-1-(1-Methanesulfonyl-piperidin-3-yl)-1H-pyrazol-4-yl]-2-[3-(1-methyl-1H-pyrazol-4-yl)-phenyl]-pyrimidine]
< 100	Cn1cc(-c2cccc(-c3ncc(-c4cnn([C@H]5CC[C@H](C(=O)NCCCO)CC5)c4)cn3)c2)cn1 [Example 190, Trans-4-(4-{2-[3-(1-Methyl-1H-pyrazol-4-yl)-phenyl]-pyrimidin-5-yl}-pyrazol-1-yl)-cyclohexanecarboxylic acid (3-hydroxy-propyl)-amide]
< 100	Cn1cc(-c2cccc(-c3ncc(-c4cnn(C5CCCN(S(C)(=O)=O)C5)c4)cn3)c2)cn1 (stereo in doubt) [Example 272, 5-[(R)-1-(1-Methanesulfonyl-piperidin-3-yl)-1H-pyrazol-4-yl]-2-[3-(1-methyl-1H-pyrazol-4-yl)-phenyl]-pyrimidine]
100 to 1000	CN1CC(C(=O)N2CCC(n3cc(-c4cnc(-c5cccc(-c6cnn(C)c6)c5)nc4)cn3)CC2)CC1=O (centres unmarked) [Example 113, 1-Methyl-4-[4-(4-{2-[3-(1-methyl-1H-pyrazol-4-yl)-phenyl]-pyrimidin-5-yl}-pyrazol-1-yl)-piperidine-1-carbonyl]-pyrrolidin-2-one]
< 100	Cn1cc(-c2cccc(-c3ncc(-c4cnn([C@H]5CC[C@H](C(=O)NC(C)(C)CO)CC5)c4)cn3)c2)cn1 [Example 213, trans-4-(4-{2-[3-(1-Methyl-1H-pyrazol-4-yl)-phenyl]-pyrimidin-5-yl}-pyrazol-1-yl)-cyclohexanecarboxylic acid (2-hydroxy-1,1-dimethyl-ethyl)-amide]
100 to 1000	Cn1cc(-c2cccc(-c3ncc(-c4cnn(C5CCN(S(C)(=O)=O)CC5)c4)cn3)c2)cn1 [Example 76, 5-[1-(1-Methanesulfonyl-piperidin-4-yl)-1H-pyrazol-4-yl]-2-[3-(1-methyl-1H-pyrazol-4-yl)-phenyl]-pyrimidine]
< 100	CN1C[C@]2(CC[C@H](n3cc(-c4cnc(-c5cccc(-c6cnn(C)c6)c5)nc4)cn3)CC2)CC1=O [Example 260, trans-2-Methyl-8-(4-{2-[3-(1-methyl-1H-pyrazol-4-yl)-phenyl]-pyrimidin-5-yl}-pyrazol-1-yl)-2-aza-spiro[4.5]decan-3-one]
< 100	Cn1cc(-c2cccc(-c3ncc(-c4cnn([C@H]5CC[C@H](C(=O)NCC#N)CC5)c4)cn3)c2)cn1 [Example 230, trans-4-(4-{2-[3-(1-Methyl-1H-pyrazol-4-yl)-phenyl]-pyrimidin-5-yl}-pyrazol-1-yl)-cyclohexanecarboxylic acid cyanomethyl-amide]
< 100	Cn1cc(-c2cccc(-c3ncc(-c4cnn([C@H]5CC[C@]6(CCC(=O)N6)CC5)c4)cn3)c2)cn1 [Example 250, cis-8-(4-{2-[3-(1-Methyl-1H-pyrazol-4-yl)-phenyl]-pyrimidin-5-yl}-pyrazol-1-yl)-1-aza-spiro[4.5]decan-2-one]
100 to 1000	Cn1cc(-c2cccc(-c3ncc(-c4cnn(CC5CCNC5)c4)cn3)c2)cn1 (centres unmarked) [Example 65, 2-[3-(1-Methyl-1H-pyrazol-4-yl)-phenyl]-5-(1-pyrrolidin-3-ylmethyl-1H-pyrazol-4-yl)-pyrimidine hydrochloride]
< 100	CN1C[C@]2(CC[C@@H](n3cc(-c4cnc(-c5cccc(-c6cnn(C)c6)c5)nc4)cn3)CC2)CC1=O [Example 262, cis-2-Methyl-8-(4-{2-[3-(1-methyl-1H-pyrazol-4-yl)-phenyl]-pyrimidin-5-yl}-pyrazol-1-yl)-2-aza-spiro[4.5]decan-3-one]
